# According to patent US20230285353A1, “A CHEMICAL COCKTAIL DRIVING EXPANSION OF MYOGENIC STEM CELLS” (The Regents of the University of California, priority 2020, published 2023):
# Test system: neonatal dermal fibroblast-like cells
# Experiment: Screening small-molecules for myogenic induction (TnT+ cells)
# Type: cell-based, mouse
# Details: for induction of myogenic cells, factor added individually to FR: basic medium with 20 μM F and R, bFGF 50 ng/ml or AA 50 μg/ml
# Method: The next day the original medium was replaced with a screening medium containing small-molecule cocktails: KnockOut DMEM (Thermo Fisher Scientific), 10% knockout serum replacement (Thermo Fisher Scientific), 10% FBS (Hyclone, Inc.), 2 mM GlutaMAX (Thermo Fisher Scientific), 1% nonessential amino acids (Thermo Fisher Scientific), 1% penicillin-streptomycin (Thermo Fisher Scientific) and 20 ng/ml bFGF (Stemgent) containing the various small molecules, including valproic acid ([…]), tranylcypromine (T, 5 μM), forskolin (F, 10 μM), and 5-aza-2'deoxycytidine (5-Aza) (5-aza, 5 μM). The medium was changed once every 2-3 days. After optimizing the cocktail of small molecules and concentrations, the screening medium was replaced with Fb medium for further screening of additional candidates that may improve myogenic efficiency, including ascorbic acid (50 μg/ml, Sigma), BMP4 (20 ng/ml, Stemgent), Insulin (10 μg/ml, Stemgent), IGF-1 (50 ng/ml, R&D Systems), PDGF (50 ng/ml, R&D Systems), and bFGF (50 ng/ml, Stemgent Inc.). For cell immunostaining, cells were fixed in 4% paraformaldehyde for 15 minutes and permeabilized with 0.5% Triton-X 100 in PBS for 15 minutes. Cells were then blocked with 5% donkey serum for 1 hour and incubated overnight at 4° C. with primary antibodies (diluted in 5% donkey serum), including TnT (mouse mAb, DSHB), Myh1E (MF 20, mouse mAb, DSHB), Myh2 (SC-71, mouse mAb, DSHB), Myh3 (F1.652, mouse mAb, DSHB), Myh4 (BF-F3, mouse mAb, DSHB), Myh7 (BA-D5, mouse mAb, DSHB), Myh8 (Rabbit pAb, Thermo Fisher Scientific, PA5-72846), […]7) (dystrophin, mouse mAb, DSHB), MyoD (mouse mAb, DSHB), MyoG (mouse mAb, DSHB), Pax7 (mouse mAb, DSHB), Sox 10 (goat pAb, R&D Systems, AF2864), Ki 67 (rabbit mAb, Abcam, ab16667), FSP1 (rabbit mAb, Sigma, 07-2274), CD 90.2-FITC (rat mAb, Thermo Fisher Scientific, 11-0903-81), P75 (rabbit pAb, Abcam, ab8874) and PDGFR-α (rat mAb, Thermo Fisher Scientific, 13-1401-82). Then appropriate Alexa Fluor 488- or Alexa Fluor 546- or Alexa Fluor 647-conjugated secondary antibodies (Thermo Fisher Scientific) were used for 1 hour at room temperature.
Compound,"induction of myogenic cells, factor added individually to FR",further results
basic fibroblast growth factor [bFGF],significantly enhanced,
"O=C1O[C@H]([C@@H](O)CO)C(O)=C1O [AA, ascorbic acid]",significantly enhanced,
"Nc1ncn([C@H]2C[C@H](O)[C@@H](CO)O2)c(=O)n1 [5-Aza, 5-aza-2′deoxycytidine]",,induction of TnT+ cells (5-Aza treatment of dermal cells): did not show any significant induction
"Cc1cccc(-c2[nH]ncc2-c2ccc3ncccc3n2)n1 [R, RepSox]",,efficiency of CiMC expansion from dermal cells with single agent (F or R alone): almost negligible
